Measurements from publication PMC6608960 (PLoS ONE, 2019).
Where a SMILES comes first, the peptide text is derived from it.

What was measured:
[1] = molecular target: T1, V2 receptor (AVP-R2) overexpressed in CHO-K1 cells (Homo sapiens, UniProt P30518); assay: Intracellular cAMP release in AVP-R2 CHO-K1 cells (cAMP Hunter eXpress); format: cell-based; conditions: peptide alone, 30 min at 37°C, chemiluminescent read-out
T1 construct: host or cells: CHO-K1
Method: Changes in intracellular cAMP level in response to agonist stimulation of the GPCR receptor was detected with a chemiluminescent cAMP Hunter eXpress Cat.No: # 95-0150E2CP2M kit from DiscoveRx (www.discoverx.com). A standard curve of cAMP (in duplicate) was included in the same plate and used to report data in nM cAMP. […] The values of cAMP were presented as relative light units (RLU) or they were calculated in nM from the standard curve.

Wistar rats = assay: Urine, sodium and potassium outflow after iv injection in rats (metabolic cages, 5 h); format: in vivo; conditions: Wistar rat
Method: Experiments were performed using 8-week-old Wistar rats (225-250g) purchased from Charles River laboratories (St. Constant, QC, CA). Rats were housed in a standard temperature and light condition with access to water and irradiated standard rodent diet (Harlan Laboratories Inc., IN, USA) ad libitum. At the end of experiments, rats were anaesthetized with sodium pentobarbital (5mg/100 g body wt. i.p.; 20 𝜇mol/100 g body wt.) and blood samples (2mL, EDTA) were collected. Rats were euthanized by cervical decapitation.
Peptides were dissolved at the desired concentration in 0.3 mL of the vehicle and administered as a single bolus in the tail vein.
Both antagonists (OTA, V2A) were administered to rats at the concentration of 10 μmol/kg under normal conditions (0.3 mL iv injection) and with blood volume expansion (5 mL iv injection). Rats (n = 24 per condition) received combination treatment in random order separated by a 2–3 day interval. For both series of experiments, rats were placed in metabolic cages for a period of 5 hours to collect urine for the determination of sodium and potassium levels. Metabolic cages were kept in a bright and quiet room and rats were deprived of food and water during this period.
The concentrations of excreted sodium and potassium were determined by flame spectrometry (iCE 3000 series AA spectrometer; Thermo Fisher Scientific, Cambridge, UK).

T1 sequence (P30518 whole entry): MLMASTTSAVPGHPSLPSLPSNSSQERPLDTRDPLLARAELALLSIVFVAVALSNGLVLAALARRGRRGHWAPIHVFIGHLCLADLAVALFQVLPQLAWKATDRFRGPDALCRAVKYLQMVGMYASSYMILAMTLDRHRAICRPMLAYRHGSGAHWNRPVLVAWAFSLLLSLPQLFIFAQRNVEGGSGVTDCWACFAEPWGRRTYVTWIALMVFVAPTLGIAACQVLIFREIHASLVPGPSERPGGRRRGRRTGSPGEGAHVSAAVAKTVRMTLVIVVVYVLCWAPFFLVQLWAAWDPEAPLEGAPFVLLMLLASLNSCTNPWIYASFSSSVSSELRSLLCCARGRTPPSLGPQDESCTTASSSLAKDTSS

Work on `CC[C@H](C)[C@@H]1NC(=O)[C@H](Cc2ccc(O)cc2)NC(=O)[C@@H](N)CSSC[C@@H](C(=O)N2CCC[C@H]2C(=O)N[C@@H](CC(C)C)C(=O)NCC(=O)NCC(=O)N[C@@H](CCCCN)C(=O)N[C@@H](CCCNC(=N)N)C(=O)O)NC(=O)[C@H](CC(N)=O)NC(=O)[C@H](CCC(N)=O)NC1=O` [OT-GKR] (HELM PEPTIDE1{C.Y.I.Q.N.C.P.L.G.G.K.R}$PEPTIDE1,PEPTIDE1,1:R3-6:R3$$$V2.0) yielded an EC50 [1] of 1100 nM.
For “[d(CH2)5, D-Ile2, Ile4, Tyr-NH29]-AVP [V2A]”, the “effect of antagonist alone on diuresis” value (Wistar rats; V2A alone iv, normal volume and blood volume expansion) was “significant diuresis”.
In the case of “[d(CH2)5, Tyr(Me)2, Thr4, Orn8, Tyr-NH29]-vasotocin [OTA]”, the “effect of antagonist on OT-stimulated diuresis” value (Wistar rats; OTA co-administered with OT, normal volume and blood volume expansion (5 mL)) is reported as “inhibited OT-stimulated diuresis to control and BVE levels”.
